Results on three molecules are retold here after PMC12516390 (ACS Medicinal Chemistry Letters, 2025).

For one series, the target named is recombinant M^Pro (Severe acute respiratory syndrome coronavirus 2, UniProt P0DTD1). In words: SARS-CoV-2 Mpro screening and IC50 determination (QS1 fluorogenic substrate, Drag assay). It is filed as biochemical.
Series [1] addresses Human Recombinant Cathepsin S (Homo sapiens, UniProt P25774). In words: Cathepsin selectivity screening, Cat S (Z-Val-Val-Arg-AMC). It is filed as biochemical. As to conditions: Z-Val-Val-Arg-AMC substrate.
The target of series [2] is T1, Human Recombinant Cathepsin K (Homo sapiens, UniProt P43235).
T1 sequence (P43235 115-329): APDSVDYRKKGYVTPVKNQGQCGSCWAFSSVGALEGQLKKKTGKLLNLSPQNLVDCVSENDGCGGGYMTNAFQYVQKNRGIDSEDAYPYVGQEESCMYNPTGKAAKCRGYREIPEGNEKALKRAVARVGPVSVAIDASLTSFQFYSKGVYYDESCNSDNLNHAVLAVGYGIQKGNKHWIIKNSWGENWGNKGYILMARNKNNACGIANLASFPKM
In words: Cathepsin selectivity screening, Cat K (Z-Phe-Arg-AMC). It is filed as biochemical. To be noted: Z-Phe-Arg-AMC substrate.

The target of series [3] is Human Recombinant Cathepsin B (Homo sapiens, UniProt P07858). In words: Cathepsin selectivity screening, Cat B (Z-Phe-Arg-AMC). The series is classed as biochemical. To be noted: for IC50: Z-Phe-Arg-AMC substrate.
The target in series [4] is Human Recombinant Cathepsin L (Homo sapiens, UniProt P07711). In words: Cathepsin selectivity screening, Cat L (Z-Phe-Arg-AMC). As to conditions: Z-Phe-Arg-AMC substrate. The series is classed as biochemical.
Human Recombinant Cathepsin L, sequence (P07711 114-333): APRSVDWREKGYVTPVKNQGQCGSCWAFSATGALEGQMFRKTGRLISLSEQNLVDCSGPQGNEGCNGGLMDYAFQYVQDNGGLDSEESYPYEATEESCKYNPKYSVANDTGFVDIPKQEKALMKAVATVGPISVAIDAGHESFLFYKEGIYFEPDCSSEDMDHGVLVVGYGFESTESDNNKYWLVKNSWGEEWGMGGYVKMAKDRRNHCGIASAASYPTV
Series [5] in a line: in vitro. As to conditions: African monkey.
Series [6] can be described thus: physchem. As to conditions: pH 7.4, aqueous buffer, kinetic from dmso stock.
A short description of series [7]: physchem. To be noted: pH 7.4.
Series [8] in a line: in vitro. As to conditions: mouse, microsomes, pH 7.4.
The nature of series [9]: in vitro. To be noted: human, microsomes, pH 7.4.
[10] abbreviates: M^Pro IC50 (μM), recombinant M^Pro, Table 6.
Setting [11] is: Table 5, read-out: IC50 (μM) CatS.
Where [12] appears, read: Table 5, read-out: IC50 (μM) CatK.
The mark [13] stands for this setting: Table 5, read-out: IC50 (μM) CatB.
The mark [14] stands for this setting: IC50 (μM) M^Pro, recombinant M^Pro, 20 μM QS1 substrate, Table 5.
[15] abbreviates: Table 5, read-out: IC50 (μM) CatL.

Molecules are shown by their SMILES. In brackets after ≈: the same amount, converted by molar mass. Read-outs that look alike come from different tables or passages of the source.

Human Recombinant Cathepsin S, sequence (P25774 115-331): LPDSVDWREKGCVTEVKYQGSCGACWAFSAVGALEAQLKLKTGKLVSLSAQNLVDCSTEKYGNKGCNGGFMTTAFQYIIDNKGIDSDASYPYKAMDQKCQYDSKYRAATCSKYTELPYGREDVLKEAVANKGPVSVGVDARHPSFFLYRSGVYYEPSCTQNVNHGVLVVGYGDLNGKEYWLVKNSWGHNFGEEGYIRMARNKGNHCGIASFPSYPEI

In general, IC50 refers to the point on the concentration scale where inhibition reaches its midpoint. For orientation: solubility (kinetic) means the concentration staying in solution when a stock, usually in DMSO, is diluted into the medium. What is called logD is the decadic logarithm of the distribution of all forms, ionised or not, between an organic phase and buffer at a given pH. By microsomal CLint is commonly meant the rate of metabolic loss divided by the concentration. With `COc1cccc(-c2ccc(C(=O)N[C@@H](CC(C)C)C(=O)N[C@H](C#N)C[C@@H]3CCNC3=O)c(Cl)c2)c1` [18n], the IC50 at recombinant M^Pro (M^Pro IC50 (nM), Table 4) was determined as 49 nM; at recombinant M^Pro (M^Pro IC50 (μM), recombinant M^Pro, 20 μM QS1 substrate, Table 3) it was 49 nM; on recombinant M^Pro (setting [10]) it was 49 nM; in series [1] (Table 4, read-out: CatS IC50) it was 0.0155 µM; in [1] (setting [11]) it was 0.015 µM; in [2] (Table 4, read-out: CatK IC50), 0.329 µM. Also, the half-maximal inhibitory concentration (IC50) in [2] (setting [12]) is 0.329 µM; in [3] (Table 4, read-out: CatB IC50) it was 0.115 µM; in series [3] (setting [13]), 0.115 µM; in series [4] (Table 4, read-out: CatL IC50), more than 10 µM. Also, the CC50 in the series “in vitro [5]” was more than 100000 nM. In the series “physchem [6]”, this molecule had a kinetic solubility of 34 µM (≈ 17.4 µg/mL). The same molecule registered a logD in the series “physchem [7]” of 3.1. Also, the microsomal CLint at 1 μM in the series “in vitro [8]” was 111 µL/min/mg; in “in vitro [9]” it was 40 µL/min/mg.

For `COc1ccc(-c2ccc(C(=O)N3C[C@H]4[C@@H]([C@H]3C(=O)N[C@H](C#N)C[C@@H]3CCNC3=O)C4(C)C)c(Cl)c2)cc1` [22e], the half-maximal inhibitory concentration (IC50) at recombinant M^Pro (setting [14]) is 87 nM; on recombinant M^Pro (setting [10]), 87 nM; in series [1] (setting [11]), 1.03 µM; in series [2] (setting [12]), 2.08 µM; in [3] (setting [13]), more than 10 µM; in [4] (setting [15]), more than 10 µM. Further, the “activity against cathepsin B (in words)” value in [3] was “completely abolished”. Further, in the series “in vitro [5]”, the CC50 was more than 100000 nM. In the series “physchem [6]”, this molecule came in with a kinetic solubility of 97 µM (≈ 51.9 µg/mL). Further, in the series “physchem [7]”, the pH-dependent lipophilicity (logD) turned out to be 3.4. In addition, the microsomal CLint at 1 μM in the series “in vitro [8]” amounted to 450 µL/min/mg; in “in vitro [9]”, 183 µL/min/mg.

For `COc1cccc(-c2ccc(C(=O)N3C[C@H]4[C@@H]([C@H]3C(=O)N[C@H](C#N)C[C@@H]3CCNC3=O)C4(C)C)c(Cl)c2)c1` [22f], the IC50 at recombinant M^Pro (setting [14]) is 120 nM; on recombinant M^Pro (setting [10]) it was 120 nM; in series [1] (setting [11]), 1.29 µM; in [2] (setting [12]), 4.52 µM; in [3] (setting [13]) it was more than 10 µM; in series [4] (setting [15]), more than 10 µM. For the same molecule, the “activity against cathepsin B (in words)” value in series [3] is reported as “completely abolished”. The CC50 in the series “in vitro [5]” was more than 100000 nM. For the same molecule, the kinetic solubility in “physchem [6]” amounted to 82 µM (≈ 43.9 µg/mL). The pH-dependent lipophilicity (logD) in “physchem [7]” worked out at 3.5. Further, the microsomal CLint at 1 μM in “in vitro [8]” is 450 µL/min/mg; in the series “in vitro [9]” it was 209 µL/min/mg.
